Source: ChEMBL document CHEMBL3885861, “Open TG-GATES”

Species on record: Rattus norvegicus
Assay: Open TG-GATES - Regimen: Single
Type: toxicity, organism-based, Sprague-Dawley
Design: regimen Single, gender Male, age 6 weeks
Conditions: in vivo, iv, 1000 mg/kg, route intravenous injection, dose level Middle; for APTT / Bas / Eos / Fbg / Hb / Ht / Lym / MCH / MCHC / MCV / Mono / PT / Plat / RBC / Ret / WBC: tissue Blood; for KIDNEY_L / KIDNEY_R / KIDNEY_TOTAL: tissue Kidney; for LIVER: tissue Liver; for ALP / ALT / AST / BUN / CRE / Ca / Cl / DBIL / GLC / IP / K / LDH / Na / PL / RALB / TBIL / TC / TG / TP / gamma-GTP: tissue Plasma

Structure (SMILES): CC(=O)OCC1=C(C(=O)O)N2C(=O)[C@@H](NC(=O)Cc3cccs3)[C@H]2SC1 [CEPHALOTHIN]
- TERMINAL_BW (3 h): 212.6 g
- APTT (3 h): 22.3 s
- Bas (3 h): 0%
- Eos (3 h): 0.4%
- Fbg (3 h): 266.6 mg/dL
- Hb (3 h): 13.2 g/dL
- Ht (3 h): 38.5%
- Lym (3 h): 72%
- MCH (3 h): 21.3 pg
- MCHC (3 h): 34.3%
- MCV (3 h): 62 fL
- Mono (3 h): 3.2%
- PT (3 h): 16.3 s
- Plat (3 h): 116.5 x10_4/uL
- RBC (3 h): 622 x10_4/ul
- Ret (3 h): 5.8%
- WBC (3 h): 76.3 x10_2/uL
- KIDNEY_L (3 h): 0.9 g
- KIDNEY_R (3 h): 0.9 g
- KIDNEY_TOTAL (3 h): 1.9 g
- LIVER (3 h): 10 g
- ALP (3 h): 1462.8 IU/L
- ALT (3 h): 52.4 IU/L
- AST (3 h): 101 IU/L
- BUN (3 h): 12.6 mg/dL
- CRE (3 h): 0.2 mg/dL
- Ca (3 h): 10.8 mg/dL
- Cl (3 h): 105.2 meq/L
- DBIL (3 h): 0 mg/dL
- GLC (3 h): 173 mg/dL
- IP (3 h): 8.5 mg/dL
- K (3 h): 4.3 meq/L
- LDH (3 h): 207.6 IU/L
- Na (3 h): 141.8 meq/L
- PL (3 h): 141.2 mg/dL
- RALB (3 h): 2.9 g/dL
- TBIL (3 h): 0.02 mg/dL
- TC (3 h): 68.8 mg/dL
- TG (3 h): 132.8 mg/dL
- TP (3 h): 5.2 g/dL
- gamma-GTP (3 h): 1.2 IU/L
- TERMINAL_BW (6 h): 218.3 g
- APTT (6 h): 24.1 s
- Bas (6 h): 0%
- Eos (6 h): 1%
- Fbg (6 h): 281.6 mg/dL
- Hb (6 h): 13.1 g/dL
- Ht (6 h): 38.6%
- Lym (6 h): 76.4%
- MCH (6 h): 21.1 pg
- MCHC (6 h): 34%
- MCV (6 h): 62.1 fL
- Mono (6 h): 2.4%
- PT (6 h): 16.2 s
- Plat (6 h): 135.7 x10_4/uL
- RBC (6 h): 622 x10_4/ul
- Ret (6 h): 6.3%
- WBC (6 h): 78.7 x10_2/uL
- KIDNEY_L (6 h): 1 g
- KIDNEY_R (6 h): 1 g
- KIDNEY_TOTAL (6 h): 1.9 g
- LIVER (6 h): 9.4 g
- ALP (6 h): 1381.4 IU/L
- ALT (6 h): 39.2 IU/L
- AST (6 h): 91.4 IU/L
- BUN (6 h): 12.8 mg/dL
- CRE (6 h): 0.2 mg/dL
- Ca (6 h): 10.5 mg/dL
- Cl (6 h): 106.2 meq/L
- DBIL (6 h): 0.002 mg/dL
- GLC (6 h): 175.4 mg/dL
- IP (6 h): 8.9 mg/dL
- K (6 h): 4.5 meq/L
- LDH (6 h): 176 IU/L
- Na (6 h): 141.4 meq/L
- PL (6 h): 127.8 mg/dL
- RALB (6 h): 2.8 g/dL
- TBIL (6 h): 0.018 mg/dL
- TC (6 h): 61.6 mg/dL
- TG (6 h): 115.2 mg/dL
- TP (6 h): 5.2 g/dL
- gamma-GTP (6 h): 1.2 IU/L
- TERMINAL_BW (9 h): 213.7 g
- APTT (9 h): 22.5 s
- Bas (9 h): 0%
- Eos (9 h): 1%
- Fbg (9 h): 293.2 mg/dL
- Hb (9 h): 13 g/dL
- Ht (9 h): 38.2%
- Lym (9 h): 73.4%
- MCH (9 h): 20.9 pg
- MCHC (9 h): 34%
- MCV (9 h): 61.6 fL
- Mono (9 h): 2.2%
- PT (9 h): 16.1 s
- Plat (9 h): 128.3 x10_4/uL
- RBC (9 h): 620.4 x10_4/ul
- Ret (9 h): 6.8%
- WBC (9 h): 74.6 x10_2/uL
- KIDNEY_L (9 h): 1 g
- KIDNEY_R (9 h): 1 g
- KIDNEY_TOTAL (9 h): 1.9 g
- LIVER (9 h): 8.9 g
- ALP (9 h): 1218.6 IU/L
- ALT (9 h): 33.2 IU/L
- AST (9 h): 75.4 IU/L
- BUN (9 h): 11 mg/dL
- CRE (9 h): 0.2 mg/dL
- Ca (9 h): 10.5 mg/dL
- Cl (9 h): 107.2 meq/L
- DBIL (9 h): 0 mg/dL
- GLC (9 h): 176.6 mg/dL
- IP (9 h): 9.1 mg/dL
- K (9 h): 4.5 meq/L
- LDH (9 h): 150 IU/L
- Na (9 h): 141.6 meq/L
- PL (9 h): 138.8 mg/dL
- RALB (9 h): 2.9 g/dL
- TBIL (9 h): 0.018 mg/dL
- TC (9 h): 72 mg/dL
- TG (9 h): 90.2 mg/dL
- TP (9 h): 5.4 g/dL
- gamma-GTP (9 h): 1.6 IU/L
- TERMINAL_BW (24 h): 219.2 g
- APTT (24 h): 22.5 s
- Bas (24 h): 0%
- Eos (24 h): 1%
- Fbg (24 h): 309.8 mg/dL
- Hb (24 h): 13.5 g/dL
- Ht (24 h): 39.4%
- Lym (24 h): 81.4%
- MCH (24 h): 20.7 pg
- MCHC (24 h): 34.3%
- MCV (24 h): 60.5 fL
- Mono (24 h): 2.4%
- PT (24 h): 16.3 s
- Plat (24 h): 124.3 x10_4/uL
- RBC (24 h): 651.8 x10_4/ul
- Ret (24 h): 5.1%
- WBC (24 h): 73.5 x10_2/uL
- KIDNEY_L (24 h): 1 g
- KIDNEY_R (24 h): 1 g
- KIDNEY_TOTAL (24 h): 1.9 g
- LIVER (24 h): 9.5 g
- ALP (24 h): 1371.4 IU/L
- ALT (24 h): 48 IU/L
- AST (24 h): 76.8 IU/L
- BUN (24 h): 15.8 mg/dL
- CRE (24 h): 0.2 mg/dL
- Ca (24 h): 10.6 mg/dL
- Cl (24 h): 106.8 meq/L
- DBIL (24 h): 0 mg/dL
- GLC (24 h): 190.8 mg/dL
- IP (24 h): 6.7 mg/dL
- K (24 h): 4.2 meq/L
- LDH (24 h): 146.8 IU/L
- Na (24 h): 143 meq/L
- PL (24 h): 148.8 mg/dL
- RALB (24 h): 3.1 g/dL
- TBIL (24 h): 0.012 mg/dL
- TC (24 h): 80.6 mg/dL
- TG (24 h): 79.4 mg/dL
- TP (24 h): 5.7 g/dL
- gamma-GTP (24 h): 1.6 IU/L
